Experimental data as given in patent US20080058349A1, “New Compounds 318” (Astrazeneca AB, priority 2006, published 2008).
pIC50: −log10 of the molar value. Structures can show the parent of a compound that is named as a salt.

Molecular target: T1, human β-Secretase (Homo sapiens, UniProt P56817)
T1 construct: The soluble part of the human β-Secretase (AA 1-AA 460) was cloned; made in house
Assay: TR-FRET assay;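 note: sBACE-Fc from HEK 293 cells, compound preincubated 10 min, then 15 min substrate reaction at RT in darkness, 5% DMSO, DMSO control as 100% and enzyme-free wells as 0%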
Format: biochemical
Conditions: soluble human β-Secretase (sBACE-Fc), substrate (Europium)CEVNLDAEFK(Qsy7) 100 nM, pH 4.5

T1 sequence (P56817 22-460): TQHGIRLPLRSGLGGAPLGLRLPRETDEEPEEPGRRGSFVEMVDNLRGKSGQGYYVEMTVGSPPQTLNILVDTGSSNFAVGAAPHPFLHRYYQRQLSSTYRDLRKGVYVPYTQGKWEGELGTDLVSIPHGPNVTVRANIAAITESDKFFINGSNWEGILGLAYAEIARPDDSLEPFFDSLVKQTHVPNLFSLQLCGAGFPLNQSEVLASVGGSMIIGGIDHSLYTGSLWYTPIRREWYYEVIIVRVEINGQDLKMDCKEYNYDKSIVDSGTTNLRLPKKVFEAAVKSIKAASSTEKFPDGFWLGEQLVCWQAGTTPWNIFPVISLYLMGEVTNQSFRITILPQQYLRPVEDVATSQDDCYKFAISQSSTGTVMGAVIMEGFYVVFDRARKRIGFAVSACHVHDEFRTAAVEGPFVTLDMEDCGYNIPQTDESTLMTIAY

pIC50	Compound
6.84	4-[5-Amino-7-(3′,5′-dichlorobiphenyl-3-yl)-2,7-dihydro-3H-imidazo[1,5-a]imidazol-7-yl]phenyl methanesulfonate 0.25 acetate [Example 61]

Same assay, conditions: soluble human β-Secretase (sBACE-Fc), substrate (Europium)[…](Qsy7) 100 nM, pH 4.5

Compound	pIC50
COc1ccc(C2(c3cccc(-c4cc(Cl)cc(Cl)c4)c3)N=C(N)N3CC(O)CN=C32)cc1 (mixture of isomers) [Example 125, 6-Amino-8-(3′,5′-dichlorobiphenyl-3-yl)-8-(4-methoxyphenyl)-2,3,4,8-tetrahydroimidazo[1,5-a]pyrimidin-3-ol]	7.66
COc1ccc(C2(c3cccc(-c4cc(Cl)cc(Cl)c4)c3)N=C(N)N3CC(OC)CN=C32)cc1 (mixture of isomers) [Example 126, 8-(3′,5′-Dichlorobiphenyl-3-yl)-3-methoxy-8-(4-methoxyphenyl)-2,3,4,8-tetrahydroimidazo[1,5-a]pyrimidin-6-amine]	7.39
COc1ccc(C2(c3cccc(-c4cc(Cl)cc(Cl)c4)c3)N=C(N)N3CC(C#N)CN=C32)cc1 (mixture of isomers) [Example 127, 6-Amino-8-(3′,5′-dichlorobiphenyl-3-yl)-8-(4-methoxyphenyl)-2,3,4,8-tetrahydroimidazo[1,5-a]pyrimidine-3-carbonitrile]	7.57
COc1ccc(C2(c3cccc(-c4cc(Cl)cc(Cl)c4)c3)N=C(N)N3CC(NC(C)=O)CN=C32)cc1 (mixture of isomers) [Example 129, N-[6-amino-8-(3′,5′-dichlorobiphenyl-3-yl)-8-(4-methoxyphenyl)-2,3,4,8-tetrahydroimidazo[1,5-a]pyrimidin-3-yl]acetamide]	7.68
COc1ccc(C2(c3cccc(-c4cc(Cl)cc(Cl)c4)c3)N=C(N)N3C2=NCC[C@H]3C(=O)O)cc1 (mixture of isomers) [Example 131, (4S)-6-amino-8-(3′,5′-dichlorobiphenyl-3-yl)-8-(4-methoxyphenyl)-2,3,4,8-tetrahydroimidazo[1,5-a]pyrimidine-4-carboxylic acid]	6.80
COc1cccc(-c2cccc(C3(c4ccccc4)N=C(N)N4CCCN=C43)c2)c1 (stereo not shown) [Example 30, 8-(3′-Methoxybiphenyl-3-yl)-8-phenyl-2,3,4,8-tetrahydroimidazo[1,5-a]pyrimidin-6-amine hydrochloride]	6.29
NC1=NC(c2ccccc2)(c2cccc(-c3cccc(Cl)c3)c2)C2=NCCCN12 (stereo not shown) [Example 31, 8-(3′-Chlorobiphenyl-3-yl)-8-phenyl-2,3,4,8-tetrahydroimidazo[1,5-a]pyrimidin-6-amine hydrochloride]	6.59
NC1=NC(c2ccc(OS(=O)(=O)C(F)(F)F)cc2)(c2cccc(-c3cccc(Cl)c3)c2)C2=NCCCN12 (stereo not shown) [Example 99, 4-[6-Amino-8-(3′-chlorobiphenyl-3-yl)-2,3,4,8-tetrahydroimidazo[1,5-a]pyrimidin-8-yl]phenyl trifluoromethanesulfonate acetate]	6.95
COc1ccc(F)c(-c2cccc(C3(c4ccccc4)N=C(N)N4CCCN=C43)c2)c1 (stereo not shown) [Example 100, 8-(2′-Fluoro-5′-methoxybiphenyl-3-yl)-8-phenyl-2,3,4,8-tetrahydroimidazo[1,5-a]pyrimidin-6-amine hydrochloride]	6.52
NC1=NC(c2ccccc2)(c2cccc(-c3cc(Cl)cc(Cl)c3)c2)C2=NCCCN12 (stereo not shown) [Example 102, 8-(3′,5′-Dichlorobiphenyl-3-yl)-8-phenyl-2,3,4,8-tetrahydroimidazo[1,5-a]pyrimidin-6-amine hydrochloride]	6.83
COc1cc(OS(C)(=O)=O)cc(-c2cccc(C3(c4ccccc4)N=C(N)N4CCCN=C43)c2)c1 (stereo not shown) [Example 103, 3′-(6-Amino-8-phenyl-2,3,4,8-tetrahydroimidazo[1,5-a]pyrimidin-8-yl)-5-methoxybiphenyl-3-yl methanesulfonate hydrochloride]	6.14
COc1ccc(C2(c3cccc(-c4cc(Cl)cc(Cl)c4)c3)N=C(N)N3CC(F)(F)CN=C32)cc1 (stereo not shown) [Example 132, 8-(3′,5′-Dichlorobiphenyl-3-yl)-3,3-difluoro-8-(4-methoxyphenyl)-2,3,4,8-tetrahydroimidazo[1,5-a]pyrimidin-6-amine 0.75 acetate]	7.49
COc1ccc(C2(c3cccc(-c4cc(Cl)cc(Cl)c4)c3)N=C(N)N3CC(F)CN=C32)cc1 (stereo not shown) [Example 136, 8-(3′,5′-Dichlorobiphenyl-3-yl)-3-fluoro-8-(4-methoxyphenyl)-2,3,4,8-tetrahydroimidazo[1,5-a]pyrimidin-6-amine 1.5 acetate]	7.47
CS(=O)(=O)Oc1cccc(C2(c3cccc(-c4cc(C(F)(F)F)cc(C(F)(F)F)c4)c3)N=C(N)N3CCCN=C32)c1 (stereo not shown) [Example 176, 3-[6-Amino-8-[3′,5′-bis(trifluoromethyl)biphenyl-3-yl]-2,3,4,8-tetrahydroimidazo[1,5-a]pyrimidin-8-yl]phenyl methanesulfonate]	5.92
COc1cccc(C2(c3cccc(-c4cc(Cl)cc(Cl)c4)c3)N=C(N)N3CCCN=C32)c1 (stereo not shown) [Example 178, 8-(3′,5′-Dichlorobiphenyl-3-yl)-8-(3-methoxyphenyl)-2,3,4,8-tetrahydroimidazo[1,5-a]pyrimidin-6-amine]	7.04
CS(=O)(=O)Oc1cccc(C2(c3cccc(-c4cc(Cl)cc(Cl)c4)c3)N=C(N)N3CCCN=C32)c1 (stereo not shown) [Example 181, 3-[6-Amino-8-(3′,5′-dichlorobiphenyl-3-yl)-2,3,4,8-tetrahydroimidazo[1,5-a]pyrimidin-8-yl]phenyl methanesulfonate]	6.97
CCCS(=O)(=O)Oc1cccc(C2(c3cccc(-c4cc(Cl)cc(Cl)c4)c3)N=C(N)N3CCCN=C32)c1 (stereo not shown) [Example 184, 3-[6-Amino-8-(3′,5′-dichlorobiphenyl-3-yl)-2,3,4,8-tetrahydroimidazo[1,5-a]pyrimidin-8-yl]phenyl propane-1-sulfonate]	7.16
CCCS(=O)(=O)Oc1cccc(C2(c3cccc(-c4cccc(OC)c4)c3)N=C(N)N3CCCN=C32)c1 (stereo not shown) [Example 185, 3-[6-Amino-8-(3′-methoxybiphenyl-3-yl)-2,3,4,8-tetrahydroimidazo[1,5-a]pyrimidin-8-yl]phenyl propane-1-sulfonate]	6.97
NC1=NC(c2cccc(OS(=O)(=O)C3CC3)c2)(c2cccc(-c3cc(Cl)cc(Cl)c3)c2)C2=NCCCN12 (stereo not shown) [Example 186, 3-[6-Amino-8-(3′,5′-dichlorobiphenyl-3-yl)-2,3,4,8-tetrahydroimidazo[1,5-a]pyrimidin-8-yl]phenyl cyclopropanesulfonate]	7.29

Results, then the compound that gave them:

pIC50	Compound
7.47	COc1ccc(C2(c3cccc(-c4cc(Cl)cc(Cl)c4)c3)N=C(N)N3CC(C(=O)O)CN=C32)cc1 (mixture of isomers) [Example 128, 6-Amino-8-(3′,5′-dichlorobiphenyl-3-yl)-8-(4-methoxyphenyl)-2,3,4,8-tetrahydroimidazo[1,5-a]pyrimidine-3-carboxylic acid]
7.77	COc1ccc(C2(c3cccc(-c4cc(Cl)cc(Cl)c4)c3)N=C(N)N3CC(NS(C)(=O)=O)CN=C32)cc1 (mixture of isomers) [Example 130, N-[6-Amino-8-(3′,5′-dichlorobiphenyl-3-yl)-8-(4-methoxyphenyl)-2,3,4,8-tetrahydroimidazo[1,5-a]pyrimidin-3-yl]methanesulfonamide]
6.64	NC1=NC(c2ccc(OS(=O)(=O)C(F)(F)F)cc2)(c2cccc(-c3cccc(Cl)c3)c2)C2=NCCN12 (stereo not shown) [Example 96, 4-[5-Amino-7-(3′-chlorobiphenyl-3-yl)-2,7-dihydro-3H-imidazo[1,5-a]imidazol-7-yl]phenyl trifluoromethanesulfonate 0.75 acetate]
6.42	NC1=NC(c2ccccc2)(c2cccc(-c3cc(Cl)ccc3F)c2)C2=NCCCN12 (stereo not shown) [Example 101, 8-(5′-Chloro-2′-fluorobiphenyl-3-yl)-8-phenyl-2,3,4,8-tetrahydroimidazo[1,5-a]pyrimidin-6-amine hydrochloride]
7.41	COc1ccc(C2(c3cccc(-c4cc(Cl)cc(Cl)c4)c3)N=C(N)N3CC(S(C)(=O)=O)CN=C32)cc1 (stereo not shown) [Example 124, 8-(3′,5′-Dichlorobiphenyl-3-yl)-8-(4-methoxyphenyl)-3-(methylsulfonyl)-2,3,4,8-tetrahydroimidazo[1,5-a]pyrimidin-6-amine 2.0 acetate]
6.61	NC1=NC(c2cccc(OS(=O)(=O)C(F)(F)F)c2)(c2cccc(-c3cccc(Cl)c3)c2)C2=NCCCN12 (stereo not shown) [Example 177, 3-[6-Amino-8-(3′-chlorobiphenyl-3-yl)-2,3,4,8-tetrahydroimidazo[1,5-a]pyrimidin-8-yl]phenyl trifluoromethanesulfonate]
6.55	CS(=O)(=O)Oc1cccc(C2(c3cccc(-c4cccc(Cl)c4)c3)N=C(N)N3CCCN=C32)c1 (stereo not shown) [Example 182, 3-[6-Amino-8-(3′-chlorobiphenyl-3-yl)-2,3,4,8-tetrahydroimidazo[1,5-a]pyrimidin-8-yl]phenyl methanesulfonate]
6.60	COc1cccc(-c2cccc(C3(c4cccc(OS(C)(=O)=O)c4)N=C(N)N4CCCN=C43)c2)c1 (stereo not shown) [Example 183, 3-[6-Amino-8-(3′-methoxybiphenyl-3-yl)-2,3,4,8-tetrahydroimidazo[1,5-a]pyrimidin-8-yl]phenyl methanesulfonate]
